“Also recorded” adds a separate entry of the source.
Key:
[1] = test system: melanopsin transduction cascade; test: Properties of the melanopsin transduction cascade: drug effects on light evoked current; format: cell-based, mouse; conditions: for effect on light induced current / effect on light evoked current / effect on photoresponses: 420 nm 10 sec; for effect on light induced current / effect on light evoked currents / effect on light evoked current / effect on photoresponses: 9-cis retinal 20 μM; for effect on light evoked currents: 420 nm 10 sec 8×10^14 photons/cm^2/s
Experimental: (§1) Mouse Neuro-2a cells (American Type Culture Collection; Cat no. CCL-131) were maintained at 37° C. in D-MEM, Dulbecco's Modified Eagle Medium with GlutaMAX™ I, 4500 mg/l D-Glucose, Sodium Pyruvate (D-MEM, Invitrogen) with 10% foetal bovine serum, 1% non-essential amino acids and 20 μg/ml gentomycin in a 5% CO2 atmosphere. Cells were trypsintsed, split and cultured at 1×10^5/ml in 90 mm dishes for 24 hours prior to transfection with plasmid vectors using lipofectamine (Invitrogen) in serum-free medium. DNA to lipid ratio was 10 μg DNA: 100 μg lipid. After transfection serum free medium was replaced with normal medium. On the following day, 2-3 days before study, cell differentiation was induced using 10 μM retinoic acid (Provencio et al., 2000). Starting from this point cells were kept in darkness. On the day of recording, glass coverslips serving as a substrate for cell attachment were transferred to the recording chamber. The perfusion solution contained 140 mM NaCl, […], 1 mM MgCl2, 2 mM CaCl2, 5 mM glucose, 10 mM HEPES (pH 7.3-7.4; 24° C.). Successfully transfected cells were identified by EGFP fluorescence under a 480 nm stimulus light using an OLYMPUS BX51WI microscope. At this point, retinal isoforms (20 μM; 9-cis and all-trans from Sigma-Aldrich; 11-cis from Dr R K Crouch, Medical University of S.C.) were added to the perfusion solution as necessary and cells kept in the dark for at least 1 hour before recording. Whole-cell patch-clamp recordings were made with pipettes containing 140 mM KCl, 10 mM NaCl, 1 mM MgCl2, 10 mM HEPES, 10 mM EGTA. Osmolarity was adjusted to 285±5 mosmol (milliosmol) 1^−1 and pH to 7.3-7.4 with KOH. Open pipette resistance was 2-5 MΩ (mega-ohms), and access resistance during recordings was <20 MΩ. Currents were recorded (Axopatch 200B, Axon Instruments) in neurons voltage clamped at holding potentials of −50 mV (milli-volt). The records were filtered at 1 kHz (kilohertz) and sampled at 20 kHz. Drugs were obtained from Sigma Aldrich, with the exception of NEM (N-ethylmaledomide) (Calbiochem), and DL-AP5, NF023, KT5720, U73122 and thapsigargin (all Tocris Cookson), drugs applied in superfusion were applied for 15-20 minutes prior to light stimulation.
(§2) Light stimuli were generated using a Cairn Optoscan Xenon arc source comprising a slit monochromator. Unless otherwise stated al stimuli were 10 sec in duration with a 20 nm half-bandwidth. Irradiance was measured using an optical powermeter (Macam Photometrics) and converted to photon flux. […] The nature of glutamate receptor expression in Neuro-2a cells remains ambiguous, nonetheless we excluded the possibility that this might be the origin of the melanopsin light response by application of the selective NMDA antagonist APV (2-amino-5-phosphonovaleric acid) (100 μM) which had no effect upon the light sensitive current (data not shown)

human melanopsin = biological target: T1, human melanopsin (Homo sapiens, UniProt Q9UHM6); test: Retinaldehyde dependence of the light evoked current in melanopsin expressing cells; format: cell-based; conditions: for light-induced response to 540 nm stimulation itself: 20 nm half-bandwidth; for light evoked peak inward current after retinal preloading / change in 420 nm light evoked current after 540 nm light exposure: retinal 20 μM; for light evoked peak inward current after retinal preloading: 1 hour, 420 nm, 8×10^14 photons/cm^2/sec; for change in 420 nm light evoked current after 540 nm light exposure: 540 nm 10 mins (2×10^14 photons/cm^2/s), retest 420 nm 10 sec
T1 construct: expressed in transfected cells; host or cells: Mouse Neuro-2a cells (ATCC CCL-131), lipofectamine transfection with the pCMS-EGFP-based melanopsin vector, differentiated with retinoic acid
T1 sequence (Q9UHM6 1-478): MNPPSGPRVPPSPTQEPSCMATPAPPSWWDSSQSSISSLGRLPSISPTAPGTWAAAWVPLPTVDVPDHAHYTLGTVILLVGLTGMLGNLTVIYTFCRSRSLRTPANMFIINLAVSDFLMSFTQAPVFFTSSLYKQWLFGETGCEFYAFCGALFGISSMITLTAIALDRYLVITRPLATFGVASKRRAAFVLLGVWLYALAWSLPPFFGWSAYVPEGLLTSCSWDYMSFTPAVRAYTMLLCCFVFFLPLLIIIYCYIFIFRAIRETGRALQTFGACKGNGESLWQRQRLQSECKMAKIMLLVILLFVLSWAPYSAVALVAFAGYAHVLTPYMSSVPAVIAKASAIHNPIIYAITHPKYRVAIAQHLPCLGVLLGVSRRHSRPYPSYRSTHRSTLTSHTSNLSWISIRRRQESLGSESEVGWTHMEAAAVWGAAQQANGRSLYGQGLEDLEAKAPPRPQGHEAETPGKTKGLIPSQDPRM
Experimental: as §1, §2

Neuro-2a cells [2] = test: Whole cell recordings of light evoked current in Neuro-2a cells expressing human melanopsin; format: cell-based, mouse
Description: The full length coding sequence of human melanopsin was amplified from retinal cDNA using Pfu-Turbo DNA polymerase (Stratagene) and the following restriction tagged primers: […]
The product was cloned into the pLITMUS28 Vector (New England Biolabs) and sequenced to confirm that there was no deviation from the reported sequence NM_033282; SEQ ID NO: 1). The product was subsequently cloned into the pCMS-EGFP vector (BD Biosciences), such that expression would be driven by the CMV immediate early promoter. A C-terminal 6×His-tagged melanopsin construct was generated in a similar manner, using the following primers: […]
as §1, §2

Neuro-2a cells [3] = test: Spectral sensitivity of the light evoked current (pCI-neo human melanopsin); format: cell-based, mouse; conditions: 11-cis retinal, mean±SEM
Experimental: For analyses of spectral sensitivity EGFP expression was excluded by employing the pCI-neo mammalian expression vector (Promega).
as §1, §2
In order to assess the correspondence, if any, between the Neuro-2a light response and these action spectra we assessed cellular responses to stimuli ranging from 300 to 540 nm in cells transfected with a pCI-neo expression vector (Promega) driving human melanopsin. EGFP was not included as a marker of expression for these experiments because of its light absorbing and fluorescent properties. […]

Molecule: COc1ccc2c(c1)CC[C@@H]1[C@@H]2CC[C@]2(C)[C@@H](NCCCCCCN3C(=O)C=CC3=O)CC[C@@H]12 [U73122]
- effect on light induced current ([1]; 50 μM): did not affect; also recorded: did not block

Molecule: CC1=C(/C=C/C(C)=C/C=C/C(C)=C/C=O)C(C)(C)CCC1 [all-trans retinal]
- light-induced response to 540 nm stimulation itself (human melanopsin): did not in itself evoke
- light evoked peak inward current after retinal preloading (human melanopsin): modest light response
- change in 420 nm light evoked current after 540 nm light exposure (human melanopsin): large increase; also recorded: three-fold increase

Molecule: O=C(Nc1cccc(C(=O)Nc2ccc(S(=O)(=O)O)c3cc(S(=O)(=O)O)cc(S(=O)(=O)O)c23)c1)Nc1cccc(C(=O)Nc2ccc(S(=O)(=O)O)c3cc(S(=O)(=O)O)cc(S(=O)(=O)O)c23)c1 [NF023]
- effect on light evoked currents ([1]; up to 1 μM in bath): no effect; also recorded: did not antagonise

Molecule: Cn1cc(C2=C(c3cn(CCCSC(=N)N)c4ccccc34)C(=O)NC2=O)c2ccccc21 [RO31-8220]
- effect on light induced current ([1]; 100 nM): did not affect

Molecule: C/C=C(/C)C(=O)O[C@H]1C(C)=C2[C@H]([C@@H]1OC(=O)CCCCCCC)[C@@](C)(OC(C)=O)C[C@H](OC(=O)CCC)[C@@]1(O)[C@H]2OC(=O)[C@@]1(C)O [thapsigargin]
- effect on light evoked current ([1]; 5 to 10 μM in zero calcium perfusates for 15-20 mins): abolished

Molecule: Nc1nc2c(nc(Br)n2[C@@H]2O[C@@H]3COP(=O)(O)O[C@H]3[C@H]2O)c(=O)[nH]1 [8-Br-cGMP]
- effect on light response ([1]; 1 mM in pipette): abolished
- effect on light induced current ([1]; in patch pipette, 100 μM and 1 nM): dose dependent suppression

Molecule: CC1=C(/C=C/C(C)=C\C=C\C(C)=C\C=O)C(C)(C)CCC1 [9-cis retinal]
- light-induced response to 540 nm stimulation itself (human melanopsin): did not in itself evoke
- light evoked peak inward current after retinal preloading (human melanopsin): Significant photosensitivity
- light evoked peak inward current after retinal preloading (human melanopsin; listed as 9-cis-retinal): more responsive
- change in 420 nm light evoked current after 540 nm light exposure (human melanopsin): only a small potentiation

Molecule: [Cd+2] [Cd^2+]
- effect on light evoked current ([1]; 100 μM, and/or removal of calcium from perfusate): little significant effect

Molecule: CCCCCCOC(=O)[C@]1(O)C[C@@H]2O[C@@]1(C)n1c3ccccc3c3c4c(c5c6ccccc6n2c5c31)C(=O)NC4 [KT5720]
- effect on light induced current ([1]; 1 μM): did not affect

Molecule: Nc1nc2c(ncn2[C@@H]2O[C@H](COP(=O)(O)OP(=O)(O)OP(O)(O)=S)[C@@H](O)[C@H]2O)c(=O)[nH]1 [GTPγS]
- effect on photoresponses ([1]; 1 mM in patch pipette): largely abolished; also recorded: abolish

Molecule: CC1=C(/C=C/C(C)=C/C=C/C(C)=C/C=O)C(C)(C)CCC1 [11-cis retinal]
- light evoked peak inward current after retinal preloading (human melanopsin): Significant photosensitivity; also recorded: significantly more effective
- light evoked peak inward current after retinal preloading (human melanopsin; listed as 11-cis-retinal): more responsive

Molecule: NC(CCCP(=O)(O)O)C(=O)O (racemic) [APV, 2-amino-5-phosphonovaleric acid]
- effect upon the light sensitive current ([1]; 100 μM, data not shown): no effect

Molecule: Cc1ccc(C(=O)Nc2ccc(S(=O)(=O)O)c3cc(S(=O)(=O)O)cc(S(=O)(=O)O)c23)cc1NC(=O)c1cccc(NC(=O)Nc2cccc(C(=O)Nc3cc(C(=O)Nc4ccc(S(=O)(=O)O)c5cc(S(=O)(=O)O)cc(S(=O)(=O)O)c45)ccc3C)c2)c1 [suramin]
- effect on photoresponses ([1]; 100 μM in bath): largely abolished; also recorded: abolish

Molecule: CCN1C(=O)C=CC1=O [NEM, N-ethylmaledomide]
- effect on light evoked currents ([1]; 50 μM in bath): no effect
- effect on light evoked currents ([1]; 50 μM in bath, listed as N-ethyl): did not antagonise

B1: human melanopsin: opsin photoactivator, SEQ ID NO:2, expressed from CMV-driven plasmid vector in Neuro-2a cells (protein, listed as Homo sapiens)
chain: MNSGRVSTSCMATASWWDSSSSSSGRSSTAGTWAAAWVTVDVDHAHYTGTVVGTGMGNTVYTCRSRSRTANMNAVSDMSTAVTSSYKWGTGCYACGAGSSMTTAADRYVTRATGVASKRRAAVGVWYAAWSGWSAYVGTSCSWDYMSTAVRAYTMCCVYCYRARTGRATGACKGNGSWRRSCKMAKMVVSWAYSAVAVAAGYAHVTYMSSVAVAKASAHNYATHKYRVAAHCGVGVSRRHSRYSYRSTHRSTTSHTSNSWSRRRSGSSVGWTHMAAAVWGAAANGRSYGGDAKARGHATGKTKGSDRM
modifications: Human melanopsin
- light evoked current, intensity dependence (Neuro-2a cells [2]; 420 nm, 10 sec, 8×10^13 or 8×10^14 photons/cm^2/sec, whole cell recording): intensity dependent sustained inward current
- cellular response to light exposure (Neuro-2a cells [2]; Neuro-2a cells expressing human melanopsin, 9-cis retinal 20 μM, 1 hour, 420 nm, 10 sec stimulus): marked cellular response
- light sensitivity (Neuro-2a cells [2]; absence of exogenous retinal): not light sensitive
- reversal potential of the response (Neuro-2a cells [2]; light-activated current, Neuro-2a cells): 0 to −10 mV
- peak light evoked slope conductance (Neuro-2a cells [2]; voltage ramp −100 to +100 mV, linear between −100 and −50 mV, 9-cis retinal, mean±SEM, n=13): 6.46±0.82 nS
- light evoked current (Neuro-2a cells [3]; 360 nm, 3×10^14 photons/cm^2/s): 72.5±19 pA
- light evoked current (Neuro-2a cells [3]; 420 nm, 8×10^14 photons/cm^2/s): 80±11 pA
- light evoked current (Neuro-2a cells [3]; 440 nm, 2×10^15 photons/cm^2/s): 32.7±14 pA
- light evoked current (Neuro-2a cells [3]; 490 nm): 8.5±1.2 pA
- light evoked current (Neuro-2a cells [3]; 540 nm, 2×10^14 photons/cm^2/s): 2.0±1.2 pA
